System: 947758-054-R-J2-PDC spheroid growth, percent test/control
Test: Anticancer human tumor 947758-054-R-J2-PDC patient-derived colon adenocarcinoma cell line growth inhibition [CLK]
Details: spheroids with HUVEC and MSC; for IC50: curve of first compound; for viability, T/C: stronger effect = lower value
In short: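 Patient-derived tumor cells grown as complex spheroids with HUVEC endothelial cells and mesenchymal stem cells, treated with drug combinations. Concentrations descend in half-log steps from near clinical Cmax, or from 10 microM if Cmax unknown.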

[1] = second compound 0.0316 µM, first compound 0.0316 µM
[2] = second compound 0.0316 µM, first compound 0.1 µM
[3] = second compound 0.0316 µM, first compound 0.316 µM
[4] = second compound 0.0316 µM, first compound 1 µM
[5] = second compound 0.0316 µM, first compound 3.16 µM
[6] = second compound 0.0316 µM, first compound 10 µM
[7] = second compound 0.1 µM, first compound 0.0316 µM
[8] = second compound 0.1 µM, first compound 0.1 µM
[9] = second compound 0.1 µM, first compound 0.316 µM
[10] = second compound 0.1 µM, first compound 1 µM
[11] = second compound 0.1 µM, first compound 3.16 µM
[12] = second compound 0.1 µM, first compound 10 µM
[13] = second compound 0.316 µM, first compound 0.0316 µM
[14] = second compound 0.316 µM, first compound 0.1 µM
[15] = second compound 0.316 µM, first compound 0.316 µM
[16] = second compound 0.316 µM, first compound 1 µM
[17] = second compound 0.316 µM, first compound 3.16 µM
[18] = second compound 0.316 µM, first compound 10 µM
[19] = second compound 1 µM, first compound 0.0316 µM
[20] = second compound 1 µM, first compound 0.1 µM
[21] = second compound 1 µM, first compound 0.316 µM
[22] = second compound 1 µM, first compound 1 µM
[23] = second compound 1 µM, first compound 3.16 µM
[24] = second compound 1 µM, first compound 10 µM
[25] = second compound 3.16 µM, first compound 0.0316 µM
[26] = second compound 3.16 µM, first compound 0.1 µM
[27] = second compound 3.16 µM, first compound 0.316 µM
[28] = second compound 3.16 µM, first compound 1 µM
[29] = second compound 3.16 µM, first compound 3.16 µM
[30] = second compound 3.16 µM, first compound 10 µM
[31] = second compound 10 µM, first compound 0.0316 µM
[32] = second compound 10 µM, first compound 0.1 µM
[33] = second compound 10 µM, first compound 0.316 µM
[34] = second compound 10 µM, first compound 1 µM
[35] = second compound 10 µM, first compound 3.16 µM
[36] = second compound 10 µM, first compound 10 µM
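Further: spheroids exposed to compounds for one week before readout.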
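Wherever viability, T/C is given: 100% = DMSO vehicle control wells.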

SMILES: C#Cc1c(F)ccc2cc(O)cc(-c3ncc4c(N5CC6CCC(C5)N6)nc(OCC56CCCN5CC(F)C6)nc4c3F)c12 (stereo unspecified) + CNC(=O)c1ccc(Nc2nc(OC3CCCC3)c3c(-c4ccc5nc(C)oc5c4)c[nH]c3n2)c(OC)c1
- IC50 (second compound 0.0316 µM): > 10 µM
- IC50 (second compound 0.1 µM): > 10 µM
- IC50 (second compound 0.316 µM): > 10 µM
- IC50 (second compound 1 µM): 3.64 µM
- IC50 (second compound 3.16 µM): < 0.0316 µM
- IC50 (second compound 10 µM): < 0.0316 µM
- viability, T/C [1]: 82.3%
- viability, T/C [2]: 77.8%
- viability, T/C [3]: 79.1%
- viability, T/C [4]: 73.4%
- viability, T/C [5]: 77%
- viability, T/C [6]: 66.8%
- viability, T/C [7]: 88.6%
- viability, T/C [8]: 92.6%
- viability, T/C [9]: 79%
- viability, T/C [10]: 91.7%
- viability, T/C [11]: 103%
- viability, T/C [12]: 79.2%
- viability, T/C [13]: 64.9%
- viability, T/C [14]: 75.3%
- viability, T/C [15]: 66.6%
- viability, T/C [16]: 91%
- viability, T/C [17]: 77.4%
- viability, T/C [18]: 56.4%
- viability, T/C [19]: 44.4%
- viability, T/C [20]: 56.8%
- viability, T/C [21]: 47.4%
- viability, T/C [22]: 53.8%
- viability, T/C [23]: 55.8%
- viability, T/C [24]: 38.1%
- viability, T/C [25]: 43.2%
- viability, T/C [26]: 35.4%
- viability, T/C [27]: 40.4%
- viability, T/C [28]: 46.7%
- viability, T/C [29]: 44.4%
- viability, T/C [30]: 29.5%
- viability, T/C [31]: 36%
- viability, T/C [32]: 24.8%
- viability, T/C [33]: 30.9%
- viability, T/C [34]: 32.2%
- viability, T/C [35]: 31.7%
- viability, T/C [36]: 24.4%

SMILES: C=C(F)C(=O)N1CCN(c2nc(OCC3CCCN3C)nc3c2CCN(c2cccc4cccc(Cl)c24)C3)CC1CC#N (stereo unspecified) + CNC(=O)c1ccc(Nc2nc(OC3CCCC3)c3c(-c4ccc5nc(C)oc5c4)c[nH]c3n2)c(OC)c1
- IC50 (second compound 0.0316 µM): 6.1 µM
- IC50 (second compound 0.1 µM): 4.95 µM
- IC50 (second compound 0.316 µM): 3.83 µM
- IC50 (second compound 1 µM): < 0.0316 µM
- IC50 (second compound 3.16 µM): < 0.0316 µM
- IC50 (second compound 10 µM): < 0.0316 µM
- viability, T/C [1]: 88.6%
- viability, T/C [2]: 66.7%
- viability, T/C [3]: 83.4%
- viability, T/C [4]: 99.7%
- viability, T/C [5]: 132%
- viability, T/C [6]: 16.8%
- viability, T/C [7]: 96.9%
- viability, T/C [8]: 71.1%
- viability, T/C [9]: 79.6%
- viability, T/C [10]: 98%
- viability, T/C [11]: 76.9%
- viability, T/C [12]: 7.83%
- viability, T/C [13]: 76.9%
- viability, T/C [14]: 65.9%
- viability, T/C [15]: 57.6%
- viability, T/C [16]: 77.2%
- viability, T/C [17]: 59.2%
- viability, T/C [18]: 3.73%
- viability, T/C [19]: 38.5%
- viability, T/C [20]: 34.6%
- viability, T/C [21]: 35.7%
- viability, T/C [22]: 54.8%
- viability, T/C [23]: 47.5%
- viability, T/C [24]: 0.18%
- viability, T/C [25]: 41.5%
- viability, T/C [26]: 34.3%
- viability, T/C [27]: 31.2%
- viability, T/C [28]: 47.8%
- viability, T/C [29]: 32.4%
- viability, T/C [30]: 0.49%
- viability, T/C [31]: 29.4%
- viability, T/C [32]: 33.3%
- viability, T/C [33]: 30%
- viability, T/C [34]: 30.2%
- viability, T/C [35]: 21.6%
- viability, T/C [36]: 0.36%

SMILES: C=CC(=O)N1CCN(c2nc(=O)n(-c3c(C)ccnc3C(C)C)c3nc(-c4c(O)cccc4F)c(F)cc23)C(C)C1 (stereo unspecified) + CNC(=O)c1ccc(Nc2nc(OC3CCCC3)c3c(-c4ccc5nc(C)oc5c4)c[nH]c3n2)c(OC)c1
- IC50 (second compound 0.0316 µM): > 10 µM
- IC50 (second compound 0.1 µM): > 10 µM
- IC50 (second compound 0.316 µM): 6.2 µM
- IC50 (second compound 1 µM): < 0.0316 µM
- IC50 (second compound 3.16 µM): < 0.0316 µM
- IC50 (second compound 10 µM): < 0.0316 µM
- viability, T/C [1]: 64.6%
- viability, T/C [2]: 69.5%
- viability, T/C [3]: 68.2%
- viability, T/C [4]: 70.9%
- viability, T/C [5]: 65.9%
- viability, T/C [6]: 51.8%
- viability, T/C [7]: 78.4%
- viability, T/C [8]: 72.3%
- viability, T/C [9]: 66.1%
- viability, T/C [10]: 75.5%
- viability, T/C [11]: 68%
- viability, T/C [12]: 51.3%
- viability, T/C [13]: 70.4%
- viability, T/C [14]: 68.8%
- viability, T/C [15]: 47.1%
- viability, T/C [16]: 80.7%
- viability, T/C [17]: 77.5%
- viability, T/C [18]: 36.7%
- viability, T/C [19]: 43.3%
- viability, T/C [20]: 45.8%
- viability, T/C [21]: 36.9%
- viability, T/C [22]: 54.5%
- viability, T/C [23]: 45%
- viability, T/C [24]: 20%
- viability, T/C [25]: 43.1%
- viability, T/C [26]: 38.1%
- viability, T/C [27]: 40.9%
- viability, T/C [28]: 40.9%
- viability, T/C [29]: 31.2%
- viability, T/C [30]: 16%
- viability, T/C [31]: 32.1%
- viability, T/C [32]: 28.1%
- viability, T/C [33]: 28.6%
- viability, T/C [34]: 25.7%
- viability, T/C [35]: 21.1%
- viability, T/C [36]: 15.1%

Reference: PubChem BioAssay AID2060605 (Molecular Pharmacology Branch, DTP, NCI, 2025)
